From the supplement of paper PMC10331698
± gives the standard deviation of the averaged measurements.

Experiments:
Experiment in all cases: level (log10 ratio to DMSO vehicle control); higher = higher biomarker level / cell amount than vehicle control
Conditions in all cases: in DMSO
[1] = compound: O=S(=O)(O)C(F)(F)C(F)(F)C(F)(F)C(F)(F)C(F)(F)C(F)(F)C(F)(F)C(F)(F)F [Perfluorooctanesulfonic acid]
Experimental: (§1)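 BioMAP Diversity Plus panel of 12 human primary cell co-culture systems (3C, 4H, LPS, SAg, BT, BF4T, BE3C, CASM3C, HDF3CGF, KF3CT, MyoF, Mphg). Compounds were added 1 h before stimulation and left for 24 h (MyoF 48 h; BT 72 h for soluble read-outs or 6 d for IgG). Biomarkers were read by ELISA, cytotoxicity by SRB, PBMC viability and proliferation by Alamar Blue. Each well value was divided by the mean of 8 DMSO control wells on the same plate and log10 transformed; duplicate blinded samples were tested at 4 concentrations.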

[2] = compound: FC(F)(F)C(F)(F)C(F)(F)C(F)(F)C(F)(F)C(F)(F)C(F)(F)CCI [1-Iodo-1H,1H,2H,2H-perfluorononane]
Experimental: as §1

Hexafluoroglutaric acid = compound: O=C(O)C(F)(F)C(F)(F)C(F)(F)C(=O)O [Hexafluoroglutaric acid]
Experimental: as §1

Perfluorooctanamide = compound: NC(=O)C(F)(F)C(F)(F)C(F)(F)C(F)(F)C(F)(F)C(F)(F)C(F)(F)F [Perfluorooctanamide]
Experimental: as §1

1-(Perfluorohexyl)octane = compound: CCCCCCCCC(F)(F)C(F)(F)C(F)(F)C(F)(F)C(F)(F)C(F)(F)F [1-(Perfluorohexyl)octane]
Experimental: as §1

Perfluorooctanamidine = compound: N=C(N)C(F)(F)C(F)(F)C(F)(F)C(F)(F)C(F)(F)C(F)(F)C(F)(F)F [Perfluorooctanamidine]
Experimental: as §1

[3] = compound: CC(C)(C)C(=O)CC(=O)C(F)(F)C(F)(F)C(F)(F)F [(Heptafluorobutanoyl)pivaloylmethane]
Experimental: as §1

Test System | level (log10) ([1]; 6700 nM) | level (log10) ([1]; 20000 nM) | level (log10) ([1]; 60000 nM) | level (log10) ([2]; 6700 nM) | level (log10) ([2]; 20000 nM) | level (log10) (Hexafluoroglutaric acid; 6700 nM) | level (log10) (Hexafluoroglutaric acid; 20000 nM) | level (log10) (Hexafluoroglutaric acid; 60000 nM) | level (log10) (Perfluorooctanamide; 6700 nM) | level (log10) (Perfluorooctanamide; 20000 nM) | level (log10) (Perfluorooctanamide; 60000 nM) | level (log10) (1-(Perfluorohexyl)octane; 6700 nM) | level (log10) (1-(Perfluorohexyl)octane; 20000 nM) | level (log10) (Perfluorooctanamidine; 6700 nM) | level (log10) (Perfluorooctanamidine; 20000 nM) | level (log10) (Perfluorooctanamidine; 60000 nM) | level (log10) ([3]; 6700 nM) | level (log10) ([3]; 20000 nM) | level (log10) ([3]; 60000 nM)
HDF3CGF:CD106/VCAM-1 | -0.043 ± 0.03 | -0.089 ± 0.0057 | -0.21 ± 0.083 | -0.0925 ± 0.013 | -0.115 ± 0.018 | -0.045 ± 0.0071 | -0.0195 ± 0.071 | -0.05 ± 0.12 | -0.015 ± 0.0099 | 0.0005 ± 0.005 | -0.016 ± 0.0085 | -0.004 ± 0.016 | -0.0265 ± 0.0064 | -0.0215 ± 0.013 | -0.132 ± 0.018 | -0.214 | 0.0085 ± 0.023 | 0.032 ± 0.0071 | -0.0925 ± 0.054
HDF3CGF:CXCL8/IL-8 | -0.017 ± 0.0057 | -0.014 ± 0.0042 | 0.0055 ± 0.015 | 0.002 ± 0.0014 | 0.0165 ± 0.019 | -0.005 ± 0.013 | -0.0005 ± 0.0064 | -0.0015 ± 0.0035 | -0.0075 ± 0.0021 | -0.0055 ± 0.012 | -0.005 ± 0.0014 | 0.0065 ± 0.0064 | 0.008 ± 0.0057 | 0.006 ± 0.0014 | 0.0135 ± 0.005 | 0.007 | 0.0025 ± 0.0035 | -0.001 ± 0.0099 | -0.0005 ± 0.0035
HDF3CGF:CXCL9/MIG | -0.011 ± 0.013 | -0.0085 ± 0.029 | -0.0595 ± 0.0064 | -0.035 ± 0.0071 | -0.0875 ± 0.049 | -0.013 ± 0.014 | -0.025 ± 0.011 | -0.005 ± 0.013 | -0.014 ± 0.013 | 0.0115 ± 0.012 | 0.0415 ± 0.0078 | 0.0055 ± 0.00071 | 0.025 ± 0.014 | 0.0055 ± 0.023 | -0.003 ± 0.018 | 0.018 | 0.0025 ± 0.012 | 0 ± 0.02 | -0.025 ± 0.033
HDF3CGF:CXCL10/IP-10 | -0.0405 ± 0.036 | -0.113 ± 0.039 | -0.259 ± 0.054 | -0.0265 ± 0.0035 | -0.0645 ± 0.03 | 0.0035 ± 0.021 | -0.008 ± 0.0071 | -0.011 ± 0.037 | -0.0165 ± 0.019 | 0.003 ± 0.0014 | 0.0305 ± 0.011 | -0.02 ± 0.041 | -0.03 ± 0.055 | 0.024 ± 0.014 | -0.004 ± 0.034 | -0.122 | -0.0195 ± 0.0078 | -0.0105 ± 0.012 | -0.076 ± 0.023
HDF3CGF:CXCL11/I-TAC | -0.0165 ± 0.016 | -0.0185 ± 0.00071 | -0.087 ± 0.017 | -0.0295 ± 0.005 | -0.094 ± 0.018 | 0.014 ± 0.0014 | -0.011 ± 0.072 | -0.0115 ± 0.061 | -0.006 ± 0.0099 | -0.0185 ± 0.016 | -0.016 ± 0.0057 | -0.0255 ± 0.023 | -0.0365 ± 0.057 | 0.024 ± 0.025 | 0.0285 ± 0.029 | -0.119 | 0.012 ± 0.014 | -0.0155 ± 0.005 | -0.06 ± 0.013
HDF3CGF:Collagen I | 0.0175 ± 0.033 | 0.0045 ± 0.026 | 0.0065 ± 0.042 | 0.0105 ± 0.042 | -0.011 ± 0.058 | -0.03 ± 0.014 | -0.0385 ± 0.0078 | 0.0105 ± 0.071 | -0.0135 ± 0.043 | -0.0555 ± 0.013 | 0.0095 ± 0.081 | 0.006 ± 0.0085 | -0.01 ± 0.1 | -0.015 ± 0.0085 | -0.025 ± 0.03 | -0.021 | -0.0025 ± 0.029 | -0.044 ± 0.04 | 0.0405 ± 0.044
HDF3CGF:Collagen III | -0.024 ± 0.031 | -0.0155 ± 0.015 | -0.0585 ± 0.013 | -0.063 ± 0.023 | -0.138 ± 0.028 | -0.0065 ± 0.015 | -0.0275 ± 0.00071 | -0.0125 ± 0.00071 | -0.018 ± 0.014 | -0.02 ± 0.0014 | -0.0085 ± 0.056 | -0.029 ± 0.042 | -0.0315 ± 0.042 | -0.047 ± 0.018 | -0.196 ± 0.045 | -0.172 | -0.008 ± 0.11 | 0.0535 ± 0.025 | 0.0555 ± 0.018
HDF3CGF:EGFR | -0.0205 ± 0.0064 | -0.0495 ± 0.043 | -0.04 ± 0.018 | 0.016 | 0.0295 ± 0.023 | -0.021 ± 0.061 | -0.0285 ± 0.056 | -0.021 ± 0.072 | 0.008 ± 0.013 | 0.0125 ± 0.015 | 0.0375 ± 0.042 | -0.007 ± 0.0028 | 0.0125 ± 0.005 | -0.017 ± 0.02 | 0.01 ± 0.011 | -0.013 | 0.027 ± 0.016 | -0.102 ± 0.031 | 0.009 ± 0.055
HDF3CGF:M-CSF | 0.0225 ± 0.018 | 0.018 ± 0.013 | -0.075 ± 0.0042 | -0.0895 ± 0.049 | -0.12 ± 0.064 | -0.0015 ± 0.013 | -0.006 ± 0.033 | -0.0285 ± 0.029 | 0.001 ± 0.023 | 0.0055 ± 0.00071 | 0.027 ± 0.0014 | -0.022 ± 0.031 | -0.0025 ± 0.021 | -0.017 ± 0.014 | -0.0485 ± 0.018 | -0.177 | 0.026 ± 0.014 | 0.03 ± 0.038 | 0 ± 0.028
HDF3CGF:MMP-1 | -0.0145 ± 0.0064 | -0.016 ± 0.0014 | 0.0085 ± 0.015 | 0.011 ± 0.017 | 0.061 ± 0.04 | 0.0195 ± 0.0092 | 0.002 ± 0.02 | -0.0045 ± 0.021 | 0.0175 ± 0.00071 | 0.003 ± 0.0071 | -0.0025 ± 0.028 | -0.0395 ± 0.012 | -0.014 ± 0.023 | -0.008 ± 0.0099 | 0.012 ± 0.0085 | -0.008 | 0.006 ± 0.0071 | -0.002 ± 0.0014 | 0.01 ± 0.024
HDF3CGF:PAI-I | 0.006 | 0.0125 ± 0.011 | -0.0015 ± 0.025 | 0.0075 ± 0.023 | -0.0095 ± 0.032 | -0.0115 ± 0.016 | -0.007 ± 0.014 | 0.0075 ± 0.021 | -0.016 ± 0.013 | -0.03 ± 0.0099 | -0.0235 ± 0.0078 | 0.0005 ± 0.016 | 0.0165 ± 0.0021 | -0.0225 ± 0.013 | 0.02 ± 0.014 | -0.233 | 0.011 ± 0.016 | 0.0255 ± 0.00071 | 0.0685 ± 0.049
HDF3CGF:Proliferation 72hr | 0.141 ± 0.05 | 0.15 ± 0.048 | -0.544 ± 0.18 | -0.689 ± 0.0092 | -0.815 ± 0.25 | -0.011 ± 0.059 | -0.013 ± 0.028 | -0.008 ± 0.05 | 0.0335 ± 0.049 | 0.004 ± 0.023 | -0.0165 ± 0.022 | 0.0085 ± 0.077 | 0.0325 ± 0.005 | -0.0255 ± 0.043 | -0.0515 ± 0.1 | -0.564 | -0.0465 ± 0.028 | 0.097 ± 0.031 | 0.094 ± 0.014
HDF3CGF:SRB | 0.008 ± 0.037 | -0.009 ± 0.027 | -0.0365 ± 0.035 | 0.016 ± 0.045 | -0.052 ± 0.071 | -0.03 ± 0.083 | -0.0095 ± 0.097 | 0.0245 ± 0.12 | 0.01 ± 0.028 | -0.0025 ± 0.033 | 0.0285 ± 0.019 | 0.0105 ± 0.11 | 0.022 ± 0.057 | -0.01 ± 0.017 | 0.0155 ± 0.0035 | -0.048 | 0.0015 ± 0.0021 | 0.0085 ± 0.013 | 0.0345 ± 0.032
HDF3CGF:TIMP-1 | -0.0015 ± 0.021 | 0.0165 ± 0.026 | 0.0895 ± 0.061 | -0.0035 ± 0.0035 | 0.047 ± 0.0085 | -0.0385 ± 0.026 | -0.02 ± 0.072 | -0.045 ± 0.073 | -0.0405 ± 0.049 | -0.022 ± 0.02 | -0.0575 ± 0.0035 | 0.0105 ± 0.039 | -0.0185 ± 0.03 | 0.013 ± 0.042 | 0.018 ± 0.05 | 0.092 | -0.011 ± 0.03 | -0.0005 ± 0.005 | 0.0085 ± 0.018
HDF3CGF:TIMP-2 | -0.028 ± 0.0085 | -0.0695 ± 0.043 | -0.149 ± 0.018 | 0.0165 ± 0.011 | 0.0055 ± 0.0064 | -0.041 ± 0.0014 | 0.01 ± 0.0028 | -0.0345 ± 0.0021 | -0.0085 ± 0.005 | -0.035 ± 0.011 | -0.0145 ± 0.022 | -0.005 ± 0.067 | -0.0035 ± 0.052 | -0.008 ± 0.027 | -0.012 ± 0.031 | -0.018 | -0.0005 ± 0.019 | -0.006 ± 0.013 | -0.019 ± 0.016
